The source made the active and inactive calls. No cut-off for these calls is given here.
Experiments:
Assay type in all cases: cell-based
Toll-like receptor 2 [1] = target: T1, Toll-like receptor 2 (Homo sapiens, UniProt O60603); test: Agonist activity at human TLR2 expressed in HEK-Blue cells harboring NFkB promoter-driven secreted alkaline phosphatase assessed as induction of NFkB after 12 hrs by spectrophotometric assay
Toll-like receptor 2 [2] = target: T1, Toll-like receptor 2; test: Agonist activity at human TLR2 expressed in HEK cells assessed as induction of MCP1 by ELISA
Toll-like receptor 2 [3] = target: T1, Toll-like receptor 2; test: Agonist activity at human TLR2 expressed in human THP1-Blue cells harboring NFkB promoter-driven secreted alkaline phosphatase assessed as induction of NFkB after 12 hrs co-treated with PAM2CSK4 by spectrophotometric assay
Toll-like receptor 2 [4] = target: T1, Toll-like receptor 2; test: Agonist activity at human TLR2 expressed in HEK cells assessed as induction of MIP1alpha level
Toll-like receptor 2 [5] = target: T1, Toll-like receptor 2; test: Agonist activity at human TLR2 expressed in HEK cells assessed as induction of MIP1beta level

T1 sequence (O60603 whole entry): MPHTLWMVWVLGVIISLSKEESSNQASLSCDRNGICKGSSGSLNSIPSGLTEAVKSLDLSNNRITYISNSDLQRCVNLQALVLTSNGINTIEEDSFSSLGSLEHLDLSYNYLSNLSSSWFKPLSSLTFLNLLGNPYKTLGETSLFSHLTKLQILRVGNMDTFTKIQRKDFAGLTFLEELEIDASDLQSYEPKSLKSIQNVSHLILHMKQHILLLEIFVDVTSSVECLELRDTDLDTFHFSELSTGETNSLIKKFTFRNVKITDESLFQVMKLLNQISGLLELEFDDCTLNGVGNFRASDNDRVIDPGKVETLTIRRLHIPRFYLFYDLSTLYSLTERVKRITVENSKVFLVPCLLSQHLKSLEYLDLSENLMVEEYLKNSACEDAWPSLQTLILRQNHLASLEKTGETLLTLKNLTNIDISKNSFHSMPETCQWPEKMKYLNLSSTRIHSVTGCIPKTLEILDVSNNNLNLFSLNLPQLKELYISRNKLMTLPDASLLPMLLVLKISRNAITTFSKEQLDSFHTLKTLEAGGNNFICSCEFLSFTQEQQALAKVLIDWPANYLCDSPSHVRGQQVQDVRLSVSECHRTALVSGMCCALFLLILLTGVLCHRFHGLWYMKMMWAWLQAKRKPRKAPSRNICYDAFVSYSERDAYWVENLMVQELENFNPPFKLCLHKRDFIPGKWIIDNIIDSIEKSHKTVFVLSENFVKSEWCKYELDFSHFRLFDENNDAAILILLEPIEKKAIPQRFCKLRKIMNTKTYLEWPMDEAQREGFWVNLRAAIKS

| SMILES | Activity (Toll-like receptor 2 [1]) | further results |
| --- | --- | --- |
| CC1CCc2cc(F)cc3c(O)c(C(=O)NCc4cncnc4)c(=O)n1c23 (configuration not stated) | inactive |  |
| CC1CCc2cc(F)cc3c(O)c(C(=O)NCC4CCOC4)c(=O)n1c23 (configuration not stated) | inactive |  |
| CC1CCc2cc(F)cc3c(O)c(C(=O)NCc4ccc(Cl)nc4)c(=O)n1c23 (configuration not stated) |  | EC50 (Toll-like receptor 2 [1]): 5000 nM |
| Cc1ccncc1CNC(=O)c1c(O)c2cc(F)cc3c2n(c1=O)C(C)CC3 (configuration not stated) |  | EC50 (Toll-like receptor 2 [1]): 1450 nM |
| CC1CCc2cc(F)cc3c(O)c(C(=O)NCc4cccnc4)c(=O)n1c23 (configuration not stated) |  | EC50 (Toll-like receptor 2 [1]): 300 nM; EC50 (Toll-like receptor 2 [2]): 1350 nM |
| CC1CCc2cc(F)cc3c(O)c(C(=O)NCc4ccc(N)nc4)c(=O)n1c23 (configuration not stated) |  | EC50 (Toll-like receptor 2 [1]): 320 nM; EC50 (Toll-like receptor 2 [2]): 7560 nM |
| CC1CCc2cc(F)cc3c(O)c(C(=O)NCc4cccnn4)c(=O)n1c23 (configuration not stated) | inactive |  |
| CC1CCc2cc(F)cc3c(O)c(C(=O)NCc4ccccn4)c(=O)n1c23 (configuration not stated) | inactive |  |
| CC1CCc2cc(F)cc3c(O)c(C(=O)NCc4cc5ccccc5[nH]4)c(=O)n1c23 (configuration not stated) | inactive |  |
| CC1CCc2cc(F)cc3c(O)c(C(=O)NCc4nc5ccccc5n4C)c(=O)n1c23 (configuration not stated) | inactive |  |
| CC1CCc2cc(F)cc3c(O)c(C(=O)NCc4ccsc4)c(=O)n1c23 (configuration not stated) | inactive |  |
| CC1CCc2cc(F)cc3c(O)c(C(=O)NCc4cccc5ncccc45)c(=O)n1c23 (configuration not stated) | inactive |  |
| Cc1nn(C)cc1CNC(=O)c1c(O)c2cc(F)cc3c2n(c1=O)C(C)CC3 (configuration not stated) | inactive |  |
| C[C@@H]1CCc2cc(F)ccc2N1 | Active |  |
| CC1CCc2cc(F)cc3c(O)c(C(=O)NCc4ccc5[nH]ccc5c4)c(=O)n1c23 (configuration not stated) | inactive |  |
| CC1CCc2cc(F)cc3c(O)c(C(=O)NCc4ccnnc4)c(=O)n1c23 (configuration not stated) | inactive |  |
| CC1CCc2cc(F)cc3c(O)c(C(=O)NCc4cccc5[nH]ccc45)c(=O)n1c23 (configuration not stated) | inactive |  |
| CC1CCc2cc(F)cc3c(O)c(C(=O)NCC4CCN(C)C4)c(=O)n1c23 (configuration not stated) | inactive |  |
| CC1CCc2cc(F)cc3c(O)c(C(=O)NCc4cnc5ccccc5c4)c(=O)n1c23 (configuration not stated) | inactive |  |
| CC1CCc2cc(F)cc3c(O)c(C(=O)NCc4ccncc4)c(=O)n1c23 (configuration not stated) | inactive |  |
| Cc1ccc(S(=O)(=O)N2CCC[C@H]2C(=O)N2c3ccc(F)cc3CC[C@@H]2C)cc1 | Active |  |
| COc1cc(CNC(=O)c2c(O)c3cc(F)cc4c3n(c2=O)C(C)CC4)ccn1 (configuration not stated) | inactive |  |
| CC1CCc2cc(F)cc3c(O)c(C(=O)NCc4cncc(F)c4)c(=O)n1c23 (configuration not stated) |  | EC50 (Toll-like receptor 2 [1]): 1000 nM; EC50 (Toll-like receptor 2 [2]): 4520 nM |
| CC1CCc2cc(F)cc3c(O)c(C(=O)NCC4CCCCN4)c(=O)n1c23 (configuration not stated) | inactive |  |
| C[C@H]1CCc2cc(F)ccc2N1 | Active |  |
| CC1CCc2cc(F)cc3c(O)c(C(=O)NCc4cccnc4N(C)C)c(=O)n1c23 (configuration not stated) |  | EC50 (Toll-like receptor 2 [1]): 3200 nM; EC50 (Toll-like receptor 2 [2]): 3090 nM |
| CC1CCc2cc(F)cc3c(O)c(C(=O)NCc4nc5ccccc5[nH]4)c(=O)n1c23 (configuration not stated) | inactive |  |
| CC1CCc2cc(F)cc3c(O)c(C(=O)NCc4ccc(N(C)C)nc4)c(=O)n1c23 (configuration not stated) | inactive |  |

| SMILES | Activity (Toll-like receptor 2 [1]) | further results |
| --- | --- | --- |
| CC1CCc2cc(F)cc3c(O)c(C(=O)NCc4cccc5cc[nH]c45)c(=O)n1c23 (configuration not stated) | inactive |  |
| CC1CCc2cc(F)cc3c(O)c(C(=O)NCc4cccs4)c(=O)n1c23 (configuration not stated) | inactive |  |
| CC1CCc2cc(F)cc3c(O)c(C(=O)NCc4cccc(C(N)=O)c4)c(=O)n1c23 (configuration not stated) | inactive |  |
| Cc1cc(CNC(=O)c2c(O)c3cc(F)cc4c3n(c2=O)C(C)CC4)no1 (configuration not stated) | inactive |  |
| CC1CCc2cc(F)cc3c(O)c(C(=O)NCc4ccc5c(c4)OCO5)c(=O)n1c23 (configuration not stated) | inactive |  |
| CC1CCc2cc(F)cc3c(O)c(C(=O)NCc4ccno4)c(=O)n1c23 (configuration not stated) | inactive |  |
| CC1CCc2cc(F)cc3c(O)c(C(=O)NCCc4cccnc4)c(=O)n1c23 (configuration not stated) |  | EC50 (Toll-like receptor 2 [1]): 1350 nM; EC50 (Toll-like receptor 2 [2]): 1860 nM |
| C[C@H]1CCc2cc(F)cc3c(O)c(C(=O)NCc4cncc(F)c4)c(=O)n1c23 | Active | Activity (Toll-like receptor 2 [3]): Active; Activity (Toll-like receptor 2 [4]): Active; Activity (Toll-like receptor 2 [5]): Active; Activity (Toll-like receptor 2 [2]): Active |
| Cc1ccc(S(=O)(=O)N2CCC[C@H]2C(=O)N2c3ccc(F)cc3CC[C@H]2C)cc1 | Active |  |
| CC1CCc2cc(F)cc3c(O)c(C(=O)NCC4CNCCO4)c(=O)n1c23 (configuration not stated) | inactive |  |
| CC1CCc2cc(F)cc3c(O)c(C(=O)NCc4ccnn4C)c(=O)n1c23 (configuration not stated) | inactive |  |
| CC1CCc2cc(F)cc3c(O)c(C(=O)NCc4cnn(C)c4)c(=O)n1c23 (configuration not stated) | inactive |  |
| CC1CCc2cc(F)cc3c(O)c(C(=O)NCC4CCCN(C)C4)c(=O)n1c23 (configuration not stated) | inactive |  |
| CC1CCc2cc(F)cc3c(O)c(C(=O)NCCn4ccnc4)c(=O)n1c23 (configuration not stated) | inactive |  |
| C[C@@H]1CCc2cc(F)cc3c(O)c(C(=O)NCc4cccnc4)c(=O)n1c23 | Active |  |
| C[C@H]1CCc2cc(F)cc3c(O)c(C(=O)NCc4cccnc4)c(=O)n1c23 | Active | Activity (Toll-like receptor 2 [3]): Active; Activity (Toll-like receptor 2 [4]): Active; Activity (Toll-like receptor 2 [5]): Active; Activity (Toll-like receptor 2 [2]): Active |
| Cc1nnc(CNC(=O)c2c(O)c3cc(F)cc4c3n(c2=O)C(C)CC4)o1 (configuration not stated) | inactive |  |
| CC1CCc2cc(F)cc3c(O)c(C(=O)NCc4ccnc5[nH]ccc45)c(=O)n1c23 (configuration not stated) | inactive |  |
| CC1CCc2cc(F)cc3c(O)c(C(=O)NCC4CCCNC4)c(=O)n1c23 (configuration not stated) | inactive |  |
| CC1CCc2cc(F)cc3c(O)c(C(=O)Nc4cccnc4)c(=O)n1c23 (configuration not stated) | inactive |  |
| CC1CCc2cc(F)cc3c(O)c(C(=O)NCC4CCNCC4)c(=O)n1c23 (configuration not stated) | inactive |  |
| C[C@H]1CCc2cc(F)cc3c(O)c(C(=O)NCc4ccc(N)nc4)c(=O)n1c23 | Active | Activity (Toll-like receptor 2 [3]): Active; Activity (Toll-like receptor 2 [4]): Active; Activity (Toll-like receptor 2 [5]): Active; Activity (Toll-like receptor 2 [2]): Active |
| CC1CCc2cc(F)cc3c(O)c(C(=O)NCc4nccn4C)c(=O)n1c23 (configuration not stated) | inactive |  |
| CC1CCc2cc(F)cc3c(O)c(C(=O)NCc4n[nH]c5ccccc45)c(=O)n1c23 (configuration not stated) | inactive |  |
| C[C@@H]1CCc2cc(F)cc3c(O)c(C(=O)NCc4ccc(N)nc4)c(=O)n1c23 | Active |  |
| CC1CCc2cc(F)cc3c(O)c(C(=O)NCc4ccc5c(c4)OCCO5)c(=O)n1c23 (configuration not stated) | inactive |  |
| CC1CCc2cc(F)cc3c(O)c(C(=O)NC4CCc5ncccc54)c(=O)n1c23 (configuration not stated) |  | EC50 (Toll-like receptor 2 [1]): 3000 nM |

From ChEMBL document CHEMBL4308923, “Identification of Human Toll-like Receptor 2-Agonistic Activity in Dihydropyridine-Quinolone Carboxamides” (ACS Med Chem Lett, 2019)
